Reference: US9637470B2, “Treatment for substance use disorders and stress disorders” (Baylor College of Medicine, priority 2013, dated 2017)
pIC50: −log10 of the molar value.

Legend:
rats [1] = experiment: Irwin test for neurotoxicity in rats; assay type: in vivo, rat; details: up to 90 mg/kg
PK parameters in mouse = details: in vivo
CYP450 2C8 = CYP450 2C8 (Homo sapiens, UniProt P10632); experiment: CYP450 inhibition, 2C8; assay type: in vitro ADME
[2] = Metabolic stability in hepatocytes; assay type: in vitro ADME, human
rats [3] = experiment: Self-administration in rats (abuse potential); details: doses up to 10 mg/kg/infusion, cocaine positive control
CYP 3A4 = experiment: CYP induction, 3A4; assay type: in vitro ADME
σ1 = σ1 (Homo sapiens, UniProt Q99720); experiment: Receptor binding studies, sigma σ1; details: at 10 uM
Text: Binding at σ1 is not problematic, as SSRIs are known to have similar activities.

Sprague-Dawley rats = experiment: Methamphetamine-induced locomotor activation in rats; assay type: in vivo, rat; details: for locomotor activity, EC2 alone versus saline: 30.0 mg/kg IP; for METH-induced locomotor activation: EC2 30.0 mg/kg IP + METH 1 mg/kg
Text: Adult male Sprague-Dawley rats (n=5-6/group, Harlan Sprague-Dawley Inc., Indianapolis, Ind., USA) were used in this study. Rats were housed three per cage in polypropylene cages in a temperature- and humidity-controlled room maintained on a 12:12 light/dark cycle (lights on at 7:00). Food and water were available ad libitum. Protocols were approved by the Baylor College of Medicine Institutional Animal Care and Use Committee and followed the “Principles of Laboratory Animal Care” (NIH publication No. 85-23, revised 1996). Facilities were accredited by the American Association of Laboratory Animal Care.
The TruScan photobeam activity system (Coulbourn Instruments, Allentown, Pa., USA) was used to measure horizontal and vertical distance traveled in centimeters (cm). This system includes a clear arena (16″L×16″W×15.5″D) that had two sets of infrared sensors with one located at floor level and the other 2.5″ above floor level. Data from beam breaks were tabulated and analyzed by a PC computer and using a Coulbourn Instruments software system (TruScan 2.03).
Drug solutions were prepared fresh daily. To test the effects of EC2 on METH locomotor activation, groups of rats were administered vehicle (saline), METH (1 mg/kg), EC2 (30.0 mg/kg) and EC2+METH. Pretreatment time was 30 min for EC2.
Testing began on the next day (day 1) and continued for the next five days. Rats were administered drugs according to group and immediately placed in the activity chambers for 60 min.
Data were first assessed with normality (Shapiro-Wilk) and equal variance tests. Distance traveled (cm), which reflects ambulatory activity, and vertical distance (cm) were the primary dependent variables analyzed. Habituation locomotor activity (baseline habituation, HAB) was assessed using a One-Way ANOVA with treatment as the main factor, and Student-Newman-Keuls Method was used for post-hoc comparisons. […] Dunn's method was used for post-hoc multiple comparisons between groups. Data are presented as mean±SEM and significant p values set at <0.05.
The preceding example was continued for 5 days. Data from day 5 passed normality and equal variance tests and were analyzed with One-Way ANOVA with treatment as the main factor. Post-hoc pairwise multiple comparison procedures were performed using Student-Newman Keuls Method was used to determine group differences. Data are presented as mean±SEM and significant p values set at <0.05.

[4] = Chronic (13 week) toxicity testing in dogs; details: dog, in vivo, read-out: no adverse effects level (NOAEL)
humans = experiment: Positive subjective effects in humans (abuse potential)
[5] = target: recombinant human dopamine transporter protein (DAT) (Homo sapiens, UniProt Q01959); experiment: IC50 binding profile, competitive inhibition assay, DAT
Method: (§1) Amitifadine and DOV 102,677 are enantiomers and differ only in the stereochemistry of the cyclopropyl pyrrolidine carbon to which the dichlorophenyl group is bonded. In addition to the structural differences, the compounds differ greatly in their IC50 binding profiles at the three corresponding monoamine transporter proteins. The IC50 binding profiles were measured for each of the compounds in Table 5 by competitive inhibition assays using recombinant human serotonin transporter protein, recombinant human norepinephrine transporter protein, and recombinant human dopamine transporter protein Compounds were screened at a range of concentrations and were fit to a curve to determine IC50 values, the concentration at which 50% inhibition occurs.

[6] = system: alcohol preferring P rats; experiment: Binge alcohol / sucrose operant drinking in alcohol preferring P rats; assay type: in vivo, rat
Method: Animals were habituated to the gavage procedures by administering deionized water alone over a number of experimental sessions.
Animals were tested in 30 individual standard operant chambers (Coulbourn Instruments, Inc., Lehigh Valley, Pa.). The operant apparatus contained two levers, two dipper manipulanda, a cue light over each lever, and a house light. The dipper cup delivered either 10% (v/v) alcohol or 1% (w/v) sucrose reinforcers in a volume of 0.1 ml. To initiate excessive “binge” alcohol drinking, rats were adapted to a 12 h:12 h light/dark cycle which began at 4:30 pm (lights off) and lasted to 4:30 am (lights on). Rats were trained to orally self-administer EtOH for daily 30 min sessions under an FR1 schedule employing the sucrose fading technique. After a period of stabilization, the response requirement was then increased to an FR4 schedule. Responding was considered stable when responses were within ±20% of the average responses for five consecutive days, which took approximately 8 days. During the stabilization procedures, the animals were never deprived of food or fluid. Other cohorts of rats were given a 1% (w/v) concentration of sucrose and trained in an identical manner under the FR1, then FR4, schedule. […] Self-administration was assessed in 3×30 min FR4 operant sessions spaced 1 h apart during the dark cycle. […]

[7] = Chronic (13 week) toxicity testing in rats; details: rat, in vivo, read-out: no adverse effects level (NOAEL)
PK parameters in monkey = details: in vivo
[8] = target: recombinant human serotonin transporter protein (SERT) (Homo sapiens, UniProt P31645); experiment: IC50 binding profile, competitive inhibition assay, SERT
Method: as §1

CYP450 2C9 = CYP450 2C9 (Homo sapiens, UniProt P11712); experiment: CYP450 inhibition, 2C9; assay type: in vitro ADME
locomotor activity = experiment: Locomotor activity, screening test for stimulant-like effects; details: in vivo

Sequence of recombinant human dopamine transporter protein (DAT) (Q01959 whole entry): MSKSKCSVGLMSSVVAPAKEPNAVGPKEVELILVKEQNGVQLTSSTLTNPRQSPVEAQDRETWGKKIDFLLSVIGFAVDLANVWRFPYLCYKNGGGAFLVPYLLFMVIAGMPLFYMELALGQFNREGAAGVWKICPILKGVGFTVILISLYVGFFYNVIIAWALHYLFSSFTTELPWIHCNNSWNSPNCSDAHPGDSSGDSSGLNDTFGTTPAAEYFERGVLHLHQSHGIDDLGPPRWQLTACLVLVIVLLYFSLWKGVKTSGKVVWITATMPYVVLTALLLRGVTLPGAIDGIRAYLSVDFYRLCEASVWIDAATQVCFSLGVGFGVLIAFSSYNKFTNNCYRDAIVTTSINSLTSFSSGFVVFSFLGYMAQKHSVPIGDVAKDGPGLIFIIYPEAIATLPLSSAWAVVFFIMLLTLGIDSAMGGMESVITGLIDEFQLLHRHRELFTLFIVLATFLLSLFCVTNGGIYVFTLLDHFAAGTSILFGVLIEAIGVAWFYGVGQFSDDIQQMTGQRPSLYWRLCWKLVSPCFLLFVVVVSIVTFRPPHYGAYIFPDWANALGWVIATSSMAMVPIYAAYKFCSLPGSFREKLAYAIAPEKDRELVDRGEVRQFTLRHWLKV
Sequence of CYP450 2C9 (P11712 whole entry): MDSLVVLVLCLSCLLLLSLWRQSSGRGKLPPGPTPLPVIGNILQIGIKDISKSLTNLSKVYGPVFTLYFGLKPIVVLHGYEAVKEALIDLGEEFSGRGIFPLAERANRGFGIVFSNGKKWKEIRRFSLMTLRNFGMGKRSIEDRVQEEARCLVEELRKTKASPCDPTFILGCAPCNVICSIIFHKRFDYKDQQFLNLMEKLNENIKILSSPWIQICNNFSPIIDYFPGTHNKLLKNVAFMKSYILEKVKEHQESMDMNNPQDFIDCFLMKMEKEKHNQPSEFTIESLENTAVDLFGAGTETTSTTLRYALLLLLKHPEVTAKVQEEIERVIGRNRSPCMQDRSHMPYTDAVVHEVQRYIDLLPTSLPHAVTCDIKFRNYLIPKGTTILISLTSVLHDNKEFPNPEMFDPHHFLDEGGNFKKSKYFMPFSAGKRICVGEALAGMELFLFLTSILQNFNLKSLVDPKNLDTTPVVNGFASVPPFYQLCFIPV
Sequence of σ1 (Q99720 whole entry): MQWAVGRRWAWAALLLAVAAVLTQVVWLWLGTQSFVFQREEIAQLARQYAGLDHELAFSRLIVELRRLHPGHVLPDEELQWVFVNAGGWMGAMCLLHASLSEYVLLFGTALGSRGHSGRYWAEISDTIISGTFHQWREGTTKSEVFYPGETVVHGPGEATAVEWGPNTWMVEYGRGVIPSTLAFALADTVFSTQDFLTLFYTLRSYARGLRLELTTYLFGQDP
Sequence of CYP450 2C8 (P10632 whole entry): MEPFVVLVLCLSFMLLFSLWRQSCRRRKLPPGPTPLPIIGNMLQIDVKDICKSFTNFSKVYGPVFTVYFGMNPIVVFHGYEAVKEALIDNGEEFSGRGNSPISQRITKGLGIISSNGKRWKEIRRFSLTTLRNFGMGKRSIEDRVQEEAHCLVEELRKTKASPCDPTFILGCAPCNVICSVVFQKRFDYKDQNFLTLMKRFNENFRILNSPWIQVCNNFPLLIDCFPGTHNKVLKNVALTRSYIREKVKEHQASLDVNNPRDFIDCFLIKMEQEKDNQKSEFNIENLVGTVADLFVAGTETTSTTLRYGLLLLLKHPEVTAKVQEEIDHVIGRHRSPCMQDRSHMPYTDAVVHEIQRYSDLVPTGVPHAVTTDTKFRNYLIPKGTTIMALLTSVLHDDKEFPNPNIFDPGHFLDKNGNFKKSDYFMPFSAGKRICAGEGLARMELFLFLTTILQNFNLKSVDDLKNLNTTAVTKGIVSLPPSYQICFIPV
Sequence of recombinant human serotonin transporter protein (SERT) (P31645 whole entry): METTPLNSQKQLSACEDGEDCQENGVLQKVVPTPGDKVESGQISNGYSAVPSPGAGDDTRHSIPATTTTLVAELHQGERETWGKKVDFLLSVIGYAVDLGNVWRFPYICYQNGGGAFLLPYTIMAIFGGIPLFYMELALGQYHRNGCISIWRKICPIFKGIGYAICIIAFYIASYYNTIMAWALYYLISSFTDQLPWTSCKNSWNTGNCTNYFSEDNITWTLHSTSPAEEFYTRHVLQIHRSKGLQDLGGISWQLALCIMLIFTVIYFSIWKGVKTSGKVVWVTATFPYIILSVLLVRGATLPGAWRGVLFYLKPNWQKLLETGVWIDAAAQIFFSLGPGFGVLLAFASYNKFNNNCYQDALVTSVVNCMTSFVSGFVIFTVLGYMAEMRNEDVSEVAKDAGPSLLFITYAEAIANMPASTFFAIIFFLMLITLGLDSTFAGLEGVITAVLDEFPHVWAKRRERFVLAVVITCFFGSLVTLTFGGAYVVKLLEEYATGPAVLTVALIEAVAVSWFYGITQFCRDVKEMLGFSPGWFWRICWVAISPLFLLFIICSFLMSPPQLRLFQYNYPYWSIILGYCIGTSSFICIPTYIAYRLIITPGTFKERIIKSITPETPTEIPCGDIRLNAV

c1ccc2cc([C@H]([C@H]3CCCNC3)n3ncnn3)ccc2c1 [Example Compound 2, (3S)-3-[(S)-naphthalen-2-yl(2H-tetrazol-2-yl)methyl]piperidine]
Irwin test for neurotoxicity (rats [1]): negative | half-life (PK parameters in mouse): 1.9 h | inhibition of CYP450 2C8 (CYP450 2C8): does not inhibit | metabolic stability [2]: high | self-administration (rats [3]): not self-administered | induction of CYP 3A4 (CYP 3A4): does not induce | inhibition of binding at σ1 (σ1): 74 % inhibition | locomotor activity, EC2 alone versus saline (Sprague-Dawley rats; day 5, both activity measures): did not differ from saline | locomotor activity, EC2 alone versus saline (Sprague-Dawley rats; over 5 days, both activity measures): did not differ from saline | METH-induced locomotor activation (Sprague-Dawley rats; day 5, more apparent on vertical distance): significantly attenuated | METH-induced locomotor activation (Sprague-Dawley rats; over 5 days, more apparent on vertical distance): significantly attenuated | NOAEL at 13 week [4]: 6 mg/kg | positive subjective effects in humans (humans): does not produce positive subjective effects | pIC50 [5]: 7.96 | binge operant responding for alcohol ([6]; oral 15, 30, 40, 60, or 80 mg/kg, p<0.001): significantly reduced | binge sucrose responding ([6]; oral, p>0.05, except for the 80 mg/kg dose): failed to significantly reduce | NOAEL at 13 week [7]: 60 mg/kg | half-life (PK parameters in monkey): 5.8 h | bioavailability (PK parameters in monkey; po, monkeys): 10% | pIC50 [8]: 7.70 | inhibition of CYP450 2C9 (CYP450 2C9): does not inhibit | increases in locomotor activity (locomotor activity): does not cause increases
